Measurements published in publication PMC8425678, “1-Oxo-3,4-dihydroisoquinoline-4-carboxamides as novel druglike inhibitors of poly(ADP-ribose) polymerase (PARP) with favourable ADME characteristics” (Journal of Enzyme Inhibition and Medicinal Chemistry, 2021).
Where two headings read alike, the source gives them in different places.

Tests used:
PARP1 [1] = target: T1, PARP1 (Homo sapiens, UniProt P09874); conditions: cited from earlier work
T1 construct: purchased BPS Bioscience (San Diego, CA)

PARP2 [2] = target: T2, PARP2 (Homo sapiens, UniProt Q9UGN5); conditions: cited from earlier work; for selectivity index (SI): PARP2 selectivity
T2 construct: purchased BPS Bioscience (San Diego, CA)

PARP1 [3] = target: T1, PARP1; assay: PARP1 colorimetric activity assay kit (BPS Bioscience); type: biochemical; conditions: for IC50: dose-response, mean (n = 3) ± SD, r^2 in brackets; for inhibition at 1 µM: read-out: PARP1 % inhibition at 1 µM, 1 µM compound, triplicate (n = 3)
Procedure: (§1) The thirty-six 1-oxo-3,4-dihydroisoquinoline-4-carboxamides 3a-aj and 1-oxoisoquinoline-4-carboxamide 11 were tested for inhibitory activity towards PARP1 and PARP2 using the commercially available colorimetric activity assay kit from BPS Bioscience (San Diego, CA) in full accordance of the supplier’s method description[13]^,[14]. The initial screening was performed against PARP1 at 1 µM concentration of each compound, in triplicate (n = 3) measurements.

PARP2 [4] = target: T2, PARP2; assay: PARP2 colorimetric activity assay kit (BPS Bioscience); type: biochemical; conditions: for IC50: dose-response, mean (n = 3) ± SD, r^2 in brackets
Procedure: as §1

[5] = Aqueous PBS solubility determination; type: physicochemical; conditions: sodium phosphate buffer, kinetic from dmso stock, pH 7.4 0.01 M phosphate buffer solution, 37 °C
Procedure: The stock solution of the compound tested in DMSO (10 mM) was diluted with 0.01 M sodium phosphate buffer solution (pH 7.4) to the concentration of 100 µM, 80 µM, 60 µM, 50 µM, 40 µM, 30 µM, 20 µM and 10 µM. The serially diluted solutions were transferred into a 96-well plate (Corning 3635, UV Plate) and the plate was incubated at 37 °C for 2 h using BioSan PST-60HL-4 thermo shaker. The plate was read at the wavelength of 620 nm using spectrophotometric microplate reader Sunrise (Tecan, Australia). The optical density values were plotted against compound concentration and approximated by a linear relationship to determine the aqueous solubility.

[6] = Stability in human liver S9 fraction; type: in vitro ADME; conditions: human liver S9 0.5 mg/mL, 10 μM compound, 37 °C; intrinsic clearance
Procedure: (§2) The rate of enzymatic degradation of the compound in liver microsomes was determined by incubating a mixture containing 0.5 mg/mL of pooled human liver microsomes (XenoTech, USA, cat. # H2620), 10 μM of compound tested, 2 mM β-nicotinamide adenine dinucleotide (Carbosynth, UK, cat. # NN10871) and 4 mM magnesium chloride in 0.1 M sodium phosphate buffer (pH 7.4) in a solid-state thermostat at 37 °C. The rate of enzymatic degradation of the compound in human liver S9 fraction was determined by incubating a reaction mixture containing 0.5 mg/mL of pooled S9 human liver fractions (XenoTech, USA, cat # H0610), 10 μM of compound tested, 2 mM β-nicotinamide adenine dinucleotide (Carbosynth, UK, cat # NN10871) and 4 mM magnesium chloride in 0.1 M sodium phosphate buffer (pH 7.4) in a solid-state thermostat at 37 °C. The reaction was stopped with acetonitrile (100 μL MeCN per 100 μL of the reaction mixture). After stopping the reaction, the samples were centrifuged for 10 min at 10,000 rpm. The supernatant was analysed by chromatography using an Agilent 1260 chromatograph (Agilent, United States). Chromatographic analysis was performed in a gradient elution mode at a flow rate of 1 ml/min. A graph of the dependence of the logarithm of the area of the peak of the substance on time was built. The dependent coefficient of this straight line corresponded to the elimination constant k, on the basis of which the half-life of the drug (T1/2) and intrinsic clearance (Clint) were calculated.

[7] = Stability in human liver microsomes; type: in vitro ADME; conditions: HLM 0.5 mg/mL, 10 μM compound, 37 °C; intrinsic clearance
Procedure: as §2

[8] = Plasma stability determination; type: in vitro ADME, human; conditions: 4 h, 37 °C, 10 μM
Procedure: Determination of stability in human blood plasma was carried out using pooled human blood plasma obtained from ten healthy donors. The candidate stock solution (10 mM in DMSO) was diluted with the pooled blood plasma to a concentration of 10 μM (test solution). The test solution was kept in a solid-state thermostat for 4 h at a temperature of 37 °C. HPLC method using an Agilent 1260 chromatograph (Agilent, USA) was employed to determine the peak area of the compounds in the test samples corresponding to the initial test time (before exposure) and the final test time (after incubation in a solid-state thermostat for 4 h at 37 °C) with preliminary precipitation of protein mass with acetonitrile (300 μL MeCN per 100 μL of the reaction mixture). After stopping the reaction, the samples were centrifuged for 10 min at 10,000 rpm and the supernatant was collected. Chromatographic analysis was performed in a gradient elution mode at a flow rate of 1 ml/min.

[9] = Plasma protein binding determination (RED dialysis); type: in vitro ADME; conditions: pooled human blood plasma, 37 °C, read-out: plasma protein binding (% bound) (converted)
Procedure: Determination of binding to human blood plasma proteins was carried out using pooled human blood plasma obtained from ten healthy donors. Determination was performed using Thermo Scientific ™ Single-RED dialysis plates. Test solutions of the candidate (10 mM in DMSO) were prepared in blood plasma and in 0.01 M sodium phosphate buffer by dilution in pooled blood plasma to a concentration of 10 μM (test solution 1) and in buffer to a concentration of 10 μM (test solution 2), respectively. The test solutions were transferred to the chambers of the dialysis plate, incubated in an Environmental Shaker – Incubator ES-20/60 (Biosan, Latvia) for 4 h at a temperature of 37 °C at a speed of 130–250 rpm. During the incubation, passive diffusion of the unbound compound occurs, and after 4 h, equilibrium is reached between the chambers with plasma with buffer solution. At the end of the incubation time, samples were taken from the chambers of the plate. HPLC analysis performed using an Agilent 1260 chromatograph (Agilent, USA) allowed determination of the peak area of the compounds in the test samples with preliminary precipitation of proteins with acetonitrile (300 µL of acetonitrile per 100 µL of the reaction mixture). After stopping the reaction, the samples were centrifuged for 10 min at 10,000 rpm and the supernatant was collected.
The concentration of the test compound in the buffer and plasma chambers was calculated using the formula: С=At=4/At=0×10, where At=0 is the value of the peak area of the candidate's test solution on the chromatogram at the initial moment of time;
The % unbound compound was calculated using the formula: %Free=C1/C2×100, where C1 is the concentration value in the buffer chamber;

T2 sequence (Q9UGN5 whole entry): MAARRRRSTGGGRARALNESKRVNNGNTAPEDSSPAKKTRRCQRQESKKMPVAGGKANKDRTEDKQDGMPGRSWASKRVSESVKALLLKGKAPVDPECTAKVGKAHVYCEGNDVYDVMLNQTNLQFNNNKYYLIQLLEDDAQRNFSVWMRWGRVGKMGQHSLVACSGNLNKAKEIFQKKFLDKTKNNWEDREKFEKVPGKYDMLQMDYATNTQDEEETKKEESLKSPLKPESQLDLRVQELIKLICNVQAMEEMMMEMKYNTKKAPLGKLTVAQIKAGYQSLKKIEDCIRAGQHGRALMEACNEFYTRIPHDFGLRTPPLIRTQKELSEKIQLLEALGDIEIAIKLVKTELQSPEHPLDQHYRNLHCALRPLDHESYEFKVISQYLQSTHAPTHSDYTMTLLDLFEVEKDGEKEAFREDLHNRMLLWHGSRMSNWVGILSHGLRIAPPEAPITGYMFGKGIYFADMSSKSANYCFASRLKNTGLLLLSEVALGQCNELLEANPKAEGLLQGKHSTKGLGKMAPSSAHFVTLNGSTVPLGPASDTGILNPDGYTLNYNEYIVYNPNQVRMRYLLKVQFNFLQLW
T1 sequence (P09874 whole entry): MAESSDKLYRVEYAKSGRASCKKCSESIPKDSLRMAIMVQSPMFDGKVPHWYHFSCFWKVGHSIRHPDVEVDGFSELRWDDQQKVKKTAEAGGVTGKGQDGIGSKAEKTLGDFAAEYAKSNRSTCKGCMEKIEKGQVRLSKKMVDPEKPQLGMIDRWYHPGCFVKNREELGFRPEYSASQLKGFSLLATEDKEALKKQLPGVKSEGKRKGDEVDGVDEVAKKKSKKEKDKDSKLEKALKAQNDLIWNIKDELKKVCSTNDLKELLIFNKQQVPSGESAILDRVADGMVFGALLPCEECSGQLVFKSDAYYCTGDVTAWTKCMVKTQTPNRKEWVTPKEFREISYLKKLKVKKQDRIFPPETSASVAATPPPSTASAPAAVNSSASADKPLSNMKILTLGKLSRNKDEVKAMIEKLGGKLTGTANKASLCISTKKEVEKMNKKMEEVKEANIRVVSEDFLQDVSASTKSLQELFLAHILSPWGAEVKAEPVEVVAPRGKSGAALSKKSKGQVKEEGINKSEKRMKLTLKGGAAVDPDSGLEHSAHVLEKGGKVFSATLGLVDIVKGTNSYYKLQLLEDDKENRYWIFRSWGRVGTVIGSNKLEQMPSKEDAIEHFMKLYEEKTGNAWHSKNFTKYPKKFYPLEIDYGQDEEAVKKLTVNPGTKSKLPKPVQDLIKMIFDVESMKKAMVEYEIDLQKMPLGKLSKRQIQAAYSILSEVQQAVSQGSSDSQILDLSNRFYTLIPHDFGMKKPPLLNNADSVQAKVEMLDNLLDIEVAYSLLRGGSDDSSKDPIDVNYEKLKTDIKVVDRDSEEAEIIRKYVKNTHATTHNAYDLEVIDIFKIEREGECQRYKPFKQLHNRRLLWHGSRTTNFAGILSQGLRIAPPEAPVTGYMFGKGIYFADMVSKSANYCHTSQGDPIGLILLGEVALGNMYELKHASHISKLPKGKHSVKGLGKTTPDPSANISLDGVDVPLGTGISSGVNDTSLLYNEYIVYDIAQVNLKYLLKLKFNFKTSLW

SMILES	IC50 (PARP1 [3]) [nM]	inhibition at 1 µM (PARP1 [3]) [%]	SI, selectivity index (PARP2 over PARP1) (PARP2 [4])	IC50 (PARP2 [4]) [nM]	melting point [°C]	further results
O=C(Oc1cccc2c1CCNC2=O)c1ccccc1 [Compound 1a]						IC50 (PARP1 [1]): 13000 nM; selectivity index (SI) (PARP2 [2]): 16.3; IC50 (PARP2 [2]): 800 nM
O=C(Oc1cccc2c(=O)[nH]ccc12)c1ccccc1 [Compound 1b]						IC50 (PARP1 [1]): 9000 nM; selectivity index (SI) (PARP2 [2]): 60.0; IC50 (PARP2 [2]): 150 nM
O=C(Nc1cccc2c(=O)[nH]ccc12)c1ccccc1 [Compound 2]						IC50 (PARP2 [2]): 1500 nM
O=C(c1cc(Cc2n[nH]c(=O)c3ccccc23)ccc1F)N1CCN(C(=O)C2CC2)CC1 [Olaparib, reference compound]						solubility at 2 h [5]: > 100 µM; Stability in the presence of hepatic S9 fraction [6]: 1.1 µL/min/mg; Stability in the presence of human liver microsomes [7]: 15 µL/min/mg; % compound remaining after incubation with human plasma [8]: 100%; fraction unbound at 4 h, 10 µM [9]: 0.098

Now from value to molecule, other results behind:

IC50 (PARP1 [3]) [nM]	inhibition at 1 µM (PARP1 [3]) [%]	SI, selectivity index (PARP2 over PARP1) (PARP2 [4])	IC50 (PARP2 [4]) [nM]	melting point [°C]	SMILES	further results
63.1 ± 5.3	91.8 ± 0.7	2.17	29.4 ± 4.5		O=C1NCC(C(=O)N2CCC(N3CCCCC3)CC2)c2ccc(F)cc21 (stereo not shown) [Compound 3aa, 4-([1,4'-Bipiperidine]-1'-carbonyl)-7-fluoro-3,4-dihydroisoquinolin-1(2H)-one]	fold better potency compared to 3l (PARP1 [3]; magic fluorine effect, 3aa vs 3l): ~2.5 fold; solubility at 2 h [5]: > 100 µM; Stability in the presence of hepatic S9 fraction [6]: 0.1 µL/min/mg; Stability in the presence of human liver microsomes [7]: 3.4 µL/min/mg; % compound remaining after incubation with human plasma [8]: 100%; fraction unbound at 4 h, 10 µM [9]: 0.29
82 ± 6.9	93.9 ± 0.2	2.82	28.8 ± 4.2	171 to 172	CC1CCN(C2CCN(C(=O)C3CNC(=O)c4cc(F)ccc43)CC2)CC1 (stereo not shown) [Compound 3ab, 7-Fluoro-4–(4-methyl-[1,4'-bipiperidine]-1'-carbonyl)-3,4-dihydroisoquinolin-1(2H)-one]	
69.5 ± 8.8	95.8 ± 0.7	2.3	29.6 ± 6.1	141 to 142	O=C1NCC(C(=O)N2CCC(N3CCCC3)CC2)c2ccc(F)cc21 (stereo not shown) [Compound 3ac, 7-Fluoro-4–(4-(pyrrolidin-1-yl)piperidine-1-carbonyl)-3,4-dihydroisoquinolin-1(2H)-one]	
128 ± 7.1	92.6 ± 1.1	3.23	40.4 ± 5.8	134 to 135	CCN(CC)C1CCN(C(=O)C2CNC(=O)c3cc(F)ccc32)CC1 (stereo not shown) [Compound 3ad, 4–(4-(Diethylamino)piperidine-1-carbonyl)-7-fluoro-3,4-dihydroisoquinolin-1(2H)-one]	
55 ± 9.9	96.6 ± 0.3	2.61	20.6 ± 2.5	179 to 180	O=C1NCC(C(=O)N2CCC(N3CCCCCC3)CC2)c2ccc(F)cc21 (stereo not shown) [Compound 3ae, 4-(4-(Azepan-1-yl)piperidine-1-carbonyl)-7-fluoro-3,4-dihydroisoquinolin-1(2H)-one]	
95.6 ± 11.5	96.9 ± 0.5	5.05	19.4 ± 3.7	182 to 183	CC1(C)CCCN(C2CCN(C(=O)C3CNC(=O)c4cc(F)ccc43)CC2)C1 (stereo not shown) [Compound 3af, 4–(3,3-Dimethyl-[1,4'-bipiperidine]-1'-carbonyl)-7-fluoro-3,4-dihydroisoquinolin-1(2H)-one]	
102 ± 9.4	95 ± 0.9	4.63	22 ± 5.6	200 to 201	CC1(C)CCN(C2CCN(C(=O)C3CNC(=O)c4cc(F)ccc43)CC2)CC1 (stereo not shown) [Compound 3ag, 4–(4,4-Dimethyl-[1,4'-bipiperidine]-1'-carbonyl)-7-fluoro-3,4-dihydroisoquinolin-1(2H)-one]	
266 ± 25	90.5 ± 0.1	6.05	44.1 ± 3.9	186 to 187	COC1CCN(C2CCN(C(=O)C3CNC(=O)c4cc(F)ccc43)CC2)CC1 (stereo not shown) [Compound 3aj, 7-Fluoro-4–(4-methoxy-[1,4'-bipiperidine]-1'-carbonyl)-3,4-dihydroisoquinolin-1(2H)-one]	
156 ± 5.8	85.2 ± 2.6	2.23	70.1 ± 7.6		O=C1NCC(C(=O)N2CCC(N3CCCCC3)CC2)c2ccccc21 (stereo not shown) [Compound 3l, 4-([1,4'-Bipiperidine]-1'-carbonyl)-3,4-dihydroisoquinolin-1(2H)-one]	PARP1 inhibitory potency in words (PARP1 [3]; compared with 3l): active; solubility at 2 h [5]: > 100 µM; Stability in the presence of hepatic S9 fraction [6]: 0.3 µL/min/mg; Stability in the presence of human liver microsomes [7]: 2.6 µL/min/mg; % compound remaining after incubation with human plasma [8]: 92.6%; fraction unbound at 4 h, 10 µM [9]: 0.332
